From patent US10227323B2, “Glucosylceramide synthase inhibitors for the treatment of diseases” (BIOMARIN PHARMACEUTICAL INC., priority 2013, dated 2019)

Molecular target: T1, GCS (Canis lupus familiaris, UniProt A0A8I3MXG6)
T1 sequence (A0A8I3MXG6 1-394): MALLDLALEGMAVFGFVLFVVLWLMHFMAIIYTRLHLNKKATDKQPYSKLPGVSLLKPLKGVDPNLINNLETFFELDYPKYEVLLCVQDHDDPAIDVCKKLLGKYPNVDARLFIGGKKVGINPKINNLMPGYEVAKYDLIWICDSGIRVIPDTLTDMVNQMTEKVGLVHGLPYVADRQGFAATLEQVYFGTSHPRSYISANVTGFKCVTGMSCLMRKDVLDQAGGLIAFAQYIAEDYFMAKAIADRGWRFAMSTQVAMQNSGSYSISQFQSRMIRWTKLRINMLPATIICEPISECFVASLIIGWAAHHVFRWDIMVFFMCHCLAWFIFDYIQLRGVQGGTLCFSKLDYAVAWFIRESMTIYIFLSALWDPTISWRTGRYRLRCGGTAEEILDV
Assay: Assay 1: GCS Enzymatic Assay (MDCK cell lysate, C6-NBD-Ceramide, LC/MS)
Format: biochemical, canine
Conditions: Table 2; for IC50: data without asterisk, read-out: IC50 (nM) generated from Assay 1; for % inhibition generated from Assay 1: data marked by *
How it was run: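 LC/MS/MS measurement of glucosylceramide and NBD-ceramide after a 1 h, 37 °C reaction with 100 μM UDP-glucose and 10 μM C6-NBD-ceramide gave IC50s or percent inhibition.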

CC(C)Oc1ccc([C@@H](O)[C@@H](CN2CCCC2)NC(=O)C(F)(F)CCc2ccc3ccccc3c2)cn1 [Compound 107, 2,2-difluoro-N-((1R,2R)-1-hydroxy-1-(6-isopropoxypyridin-3-yl)-3-(pyrrolidin-1-yl)propan-2-yl)-4-(naphthalen-2-yl)butanamide]
IC50: < 50 nM

O=C(N[C@H](CN1CCCC1)[C@H](O)c1ccc(OCC(F)(F)F)nc1)C(F)(F)CCc1ccc2ccccc2c1 [Compound 108, 2,2-difluoro-N-((1R,2R)-1-hydroxy-3-(pyrrolidin-1-yl)-1-(6-(2,2,2-trifluoroethoxy)pyridin-3-yl)propan-2-yl)-4-(naphthalen-2-yl)butanamide]
IC50: 50 to 5000 nM

O=C(N[C@H](CN1CCCC1)[C@H](O)c1cc(F)c2c(c1)OCCO2)C(F)(F)CCc1ccc2ccccc2c1 [Compound 109, 2,2-difluoro-N-((1R,2R)-1-(8-fluoro-2,3-dihydrobenzo[b][1,4]dioxin-6-yl)-1-hydroxy-3-(pyrrolidin-1-yl)propan-2-yl)-4-(naphthalen-2-yl)butanamide]
IC50: < 50 nM

O=C(N[C@H](CN1CCCC1)[C@H](O)c1ccc(OC2CCOCC2)c(Cl)c1)C(F)(F)CCc1ccc2ccccc2c1 [Compound 110, N-((1R,2R)-1-(3-chloro-4-((tetrahydro-2H-pyran-4-yl)oxy)phenyl)-1-hydroxy-3-(pyrrolidin-1-yl)propan-2-yl)-2,2-difluoro-4-(naphthalen-2-yl)butanamide]
IC50: < 50 nM

O=C(CCc1ccc2cc(F)ccc2c1)C(=O)N[C@H](CN1CCCC1)[C@H](O)c1cc(F)c2c(c1)OCCO2 [Compound 111, N-((1R,2R)-1-(8-fluoro-2,3-dihydrobenzo[b][1,4]dioxin-6-yl)-1-hydroxy-3-(pyrrolidin-1-yl)propan-2-yl)-4-(6-fluoronaphthalen-2-yl)-2-oxobutanamide]
IC50: < 50 nM

O=C(N[C@H](CN1CCCC1)[C@H](O)c1ccc(OC2CC2)c(Cl)c1)/C(CCc1ccc2cc(F)ccc2c1)=N/O [Compound 112, (E)-N-((1R,2R)-1-(3-chloro-4-cyclopropoxyphenyl)-1-hydroxy-3-(pyrrolidin-1-yl)propan-2-yl)-4-(6-fluoronaphthalen-2-yl)-2-(hydroxyimino)butanamide]
IC50: < 50 nM

CC(C)Oc1cc([C@@H](O)[C@@H](CN2CCCC2)NC(=O)C(F)(F)CCc2ccc3cc(F)ccc3c2)ccn1 [Compound 114, 2,2-difluoro-4-(6-fluoronaphthalen-2-yl)-N-((1R,2R)-1-hydroxy-1-(2-isopropoxypyridin-4-yl)-3-(pyrrolidin-1-yl)propan-2-yl)butanamide]
% inhibition generated from Assay 1: A* (the compound had a % inhibition of a percent inhibition of greater than or equal to about 50%)

O=C(N[C@H](CN1CCCC1)[C@H](O)c1cc(F)c2c(c1)OCCO2)/C(CCc1ccc2cc(F)ccc2c1)=N/O [Compound 115, (E)-N-((1R,2R)-1-(8-fluoro-2,3-dihydrobenzo[b][1,4]dioxin-6-yl)-1-hydroxy-3-(pyrrolidin-1-yl)propan-2-yl)-4-(6-fluoronaphthalen-2-yl)-2-(hydroxyimino)butanamide]
IC50: < 50 nM

O=C(N[C@H](CN1CCCC1)[C@H](O)c1ccc(OC2CCOCC2)c(Cl)c1)C(F)(F)C1Cc2ccc(Cl)cc2C1 (stereo partly drawn) [Compound 116, 2-(5-chloro-2,3-dihydro-1H-inden-2-yl)-N-((1R,2R)-1-(3-chloro-4-((tetrahydro-2H-pyran-4-yl)oxy)phenyl)-1-hydroxy-3-(pyrrolidin-1-yl)propan-2-yl)-2,2-difluoroacetamide]
IC50: < 50 nM

O=C(N[C@H](CN1CCC1)[C@H](O)c1cc(F)c2c(c1)OCCO2)/C(CCc1ccc2cc(F)ccc2c1)=N/O [Compound 118, (E)-N-((1R,2R)-3-(azetidin-1-yl)-1-(8-fluoro-2,3-dihydrobenzo[b][1,4]dioxin-6-yl)-1-hydroxypropan-2-yl)-4-(6-fluoronaphthalen-2-yl)-2-(hydroxyimino)butanamide]
IC50: 50 to 5000 nM

CC1(C)CCc2cc([C@@H](O)[C@@H](CN3CCCC3)NC(=O)C(F)(F)c3cc4cc(Cl)ccc4o3)ccc2O1 [Compound 119, 2-(5-chlorobenzofuran-2-yl)-N-((1R,2R)-1-(2,2-dimethylchroman-6-yl)-1-hydroxy-3-(pyrrolidin-1-yl)propan-2-yl)-2,2-difluoroacetamide]
% inhibition generated from Assay 1: A* (the compound had a % inhibition of a percent inhibition of greater than or equal to about 50%)

O=C(N[C@H](CN1CCCC1)[C@H](O)c1ccc(OC2CC2)nc1)C(F)(F)CCc1ccc2ccccc2c1 [Compound 120, N-((1R,2R)-1-(6-cyclopropoxypyridin-3-yl)-1-hydroxy-3-(pyrrolidin-1-yl)propan-2-yl)-2,2-difluoro-4-(naphthalen-2-yl)butanamide]
% inhibition generated from Assay 1: A* (the compound had a % inhibition of a percent inhibition of greater than or equal to about 50%)

CN1CCC(Oc2ccc([C@@H](O)[C@@H](CN3CCCC3)NC(=O)C(F)(F)CCc3ccc4ccccc4c3)cc2Cl)CC1 [Compound 121, N-((1R,2R)-1-(3-chloro-4-((l-methylpiperidin-4-yl)oxy)phenyl)-1-hydroxy-3-(pyrrolidin-1-yl)propan-2-yl)-2,2-difluoro-4-(naphthalen-2-yl)butanamide]
% inhibition generated from Assay 1: B* (the compound had a % inhibition of greater than or equal to about 3% but less than about 50%)

O=C(N[C@H](CN1CCC1)[C@H](O)c1ccc(OC2CC2)c(Cl)c1)C(=O)c1cc2cc(Cl)ccc2o1 [Compound 122, N-((1R,2R)-3-(azetidin-1-yl)-1-(3-chloro-4-cyclopropoxyphenyl)-1-hydroxypropan-2-yl)-2-(5-chlorobenzofuran-2-yl)-2-oxoacetamide]
% inhibition generated from Assay 1: A* (the compound had a % inhibition of a percent inhibition of greater than or equal to about 50%)

CN1CCC(Oc2ccc([C@@H](O)[C@@H](CN3CCCC3)NC(=O)C(F)(F)c3cc4cc(Cl)ccc4o3)cc2Cl)CC1 [Compound 123, N-((1R,2R)-1-(3-chloro-4-((l-methylpiperidin-4-yl)oxy)phenyl)-1-hydroxy-3-(pyrrolidin-1-yl)propan-2-yl)-2-(5-chlorobenzofuran-2-yl)-2,2-difluoroacetamide]
% inhibition generated from Assay 1: A* (the compound had a % inhibition of a percent inhibition of greater than or equal to about 50%)

O=C(N[C@H](CN1CCCC1)[C@H](O)c1ccc(OC2CC2)c(F)c1)C(F)(F)CCc1ccc2ccccc2c1 [Compound 125, N-((1R,2R)-1-(4-cyclopropoxy-3-fluorophenyl)-1-hydroxy-3-(pyrrolidin-1-yl)propan-2-yl)-2,2-difluoro-4-(naphthalen-2-yl)butanamide]
IC50: < 50 nM

O=C(N[C@H](CN1CCCC1)[C@H](O)c1ccc(OC2CC2)c(F)c1)C(F)(F)c1cc2cc(Cl)ccc2o1 [Compound 126, 2-(5-chlorobenzofuran-2-yl)-N-((1R,2R)-1-(4-cyclopropoxy-3-fluorophenyl)-1-hydroxy-3-(pyrrolidin-1-yl)propan-2-yl)-2,2-difluoroacetamide]
IC50: < 50 nM

O=C(N[C@H](CN1CCCC1)[C@H](O)c1ccc(N2CCOCC2)c(Cl)c1)C(F)(F)c1cc2cc(Cl)ccc2o1 [Compound 127, N-((1R,2R)-1-(3-chloro-4-morpholinophenyl)-1-hydroxy-3-(pyrrolidin-1-yl)propan-2-yl)-2-(5-chlorobenzofuran-2-yl)-2,2-difluoroacetamide]
IC50: 50 to 5000 nM

O=C(N[C@H](CN1CCCC1)[C@H](O)c1ccc(OCCN2CCC2)c(Cl)c1)C(F)(F)c1cc2cc(Cl)ccc2o1 [Compound 128, N-((1R,2R)-1-(4-(2-(azetidin-1-yl)ethoxy)-3-chlorophenyl)-1-hydroxy-3-(pyrrolidin-1-yl)propan-2-yl)-2-(5-chlorobenzofuran-2-yl)-2,2-difluoroacetamide]
IC50: < 50 nM

O=C(N[C@H](CN1CCCC1)[C@H](O)c1ccc(OC2COC2)c(Cl)c1)C(F)(F)CCc1ccc2ccccc2c1 [Compound 129, N-((1R,2R)-1-(3-chloro-4-(oxetan-3-yloxy)phenyl)-1-hydroxy-3-(pyrrolidin-1-yl)propan-2-yl)-2,2-difluoro-4-(naphthalen-2-yl)butanamide]
IC50: < 50 nM

O=C(N[C@H](CN1CCCC1)[C@H](O)c1ccc(OC2COC2)c(Cl)c1)C(F)(F)c1cc2cc(Cl)ccc2o1 [Compound 130, N-((1R,2R)-1-(3-chloro-4-(oxetan-3-yloxy)phenyl)-1-hydroxy-3-(pyrrolidin-1-yl)propan-2-yl)-2-(5-chlorobenzofuran-2-yl)-2,2-difluoroacetamide]
IC50: < 50 nM

O=C(N[C@H](CN1CCCC1)[C@H](O)c1ccc(OCCN2CCC2)c(Cl)c1)C(F)(F)CCc1ccc2ccccc2c1 [Compound 131, N-((1R,2R)-1-(4-(2-(azetidin-1-yl)ethoxy)-3-chlorophenyl)-1-hydroxy-3-(pyrrolidin-1-yl)propan-2-yl)-2,2-difluoro-4-(naphthalen-2-yl)butanamide]
% inhibition generated from Assay 1: A* (the compound had a % inhibition of a percent inhibition of greater than or equal to about 50%)

O=C(N[C@H](CN1CCCC1)[C@H](O)c1ccc2c(c1)OCCO2)C(F)(F)c1ccc2cc(Cl)ccc2c1 [Compound 132, 2-(6-chloronaphthalen-2-yl)-N-((1R,2R)-1-(2,3-dihydrobenzo[b][1,4]dioxin-6-yl)-1-hydroxy-3-(pyrrolidin-1-yl)propan-2-yl)-2,2-difluoroacetamide]
IC50: < 50 nM
